Experimental data: patent US20120270237A9, “METHODS FOR THE IDENTIFICATION OF KINASE INTERACTING MOLECULES AND FOR THE PURIFICATION OF KINASE PROTEINS” (Cellzone AG, priority 2009, published 2012)

Key:
MARK2 = MARK2 (Homo sapiens, UniProt Q7KZI7); experiment: Kinobeads competition binding, HL60 cell lysate; parameters: endogenous in cells; host or cells: HL60 cell lysate; details: 10 μM free compound
Experimental: (§1) To one aliquot of cell lysate 10 μM of the free compound (FIG. 3, CZC31326) was added and allowed to bind to proteins in the lysate. Then the affinity matrix with the immobilized compound (Example 1) was added to capture proteins that were not interacting with the previously added free compound. Beads were separated from the lysate and bead bound proteins were eluted in SDS sample buffer and subsequently separated by SDS-Polyacrylamide gel electrophoresis (FIG. 4). Suitable gel bands were cut out and subjected to in-gel proteolytic digestion with trypsin. The second lysate aliquot was processed identically, however no free compound was added (DMSO solvent control). Peptides originating from samples 1 and 2 were labeled with iTRAQ reagents (iTRAQ 114 and iTRAQ 117) and the combined samples were analyzed with a nano-flow liquid chromatography system coupled online to a tandem mass spectrometer (LC-MS/MS) experiment followed by iTRAQ reporter ion quantification in the MS/MS spectra (Ross et al., 2004. Mol. Cell. Proteomics 3(12):1154-1169). Further experimental protocols can be found in WO2006/134056 and a previous publication (Bantscheff et al., 2007. Nature Biotechnology 25, 1035-1044). Sepharose-beads with the immobilized compound (100 μl beads per pull-down experiment) were equilibrated in lysis buffer and incubated with a cell lysate sample containing 50 mg of protein on an end-over-end shaker (Roto Shake Genie, Scientific Industries Inc.) for 2 hours at 4° C. […] The iTRAQ reagents are a set of multiplexed, amine-specific, stable isotope reagents that can label peptides on amino groups in up to four different biological samples enabling simultaneous identification and quantitation of peptides. […] Relative protein quantitation was performed using peak areas of iTRAQ reporter ion signals essentially as described in an earlier publication (Bantscheff et al., 2007. Nature Biotechnology 25, 1035-1044).

MAP3K2 = target: T1, MAP3K2 (Homo sapiens, UniProt Q9Y2U5); experiment: Kinobeads competition binding, HL60 cell lysate; parameters: endogenous in cells; host or cells: HL60 cell lysate; details: 10 μM free compound
T1 sequence (Q9Y2U5 1-619): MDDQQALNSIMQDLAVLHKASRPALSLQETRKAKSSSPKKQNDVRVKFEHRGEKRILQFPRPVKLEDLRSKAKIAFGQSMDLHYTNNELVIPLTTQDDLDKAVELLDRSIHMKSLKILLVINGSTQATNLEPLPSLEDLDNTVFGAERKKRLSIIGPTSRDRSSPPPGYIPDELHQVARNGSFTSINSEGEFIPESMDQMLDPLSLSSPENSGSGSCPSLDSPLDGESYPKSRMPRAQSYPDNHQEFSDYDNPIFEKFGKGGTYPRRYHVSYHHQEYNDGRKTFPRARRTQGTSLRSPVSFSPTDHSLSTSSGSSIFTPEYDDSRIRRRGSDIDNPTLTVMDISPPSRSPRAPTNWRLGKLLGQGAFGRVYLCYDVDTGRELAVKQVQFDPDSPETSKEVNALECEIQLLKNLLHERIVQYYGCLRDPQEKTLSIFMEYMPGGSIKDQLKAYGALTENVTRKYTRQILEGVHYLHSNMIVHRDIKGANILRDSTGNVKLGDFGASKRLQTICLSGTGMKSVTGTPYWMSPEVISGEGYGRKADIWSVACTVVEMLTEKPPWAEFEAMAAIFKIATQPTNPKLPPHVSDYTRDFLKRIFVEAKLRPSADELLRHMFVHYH
Experimental: as §1

Sequence of MARK2 (Q7KZI7 whole entry): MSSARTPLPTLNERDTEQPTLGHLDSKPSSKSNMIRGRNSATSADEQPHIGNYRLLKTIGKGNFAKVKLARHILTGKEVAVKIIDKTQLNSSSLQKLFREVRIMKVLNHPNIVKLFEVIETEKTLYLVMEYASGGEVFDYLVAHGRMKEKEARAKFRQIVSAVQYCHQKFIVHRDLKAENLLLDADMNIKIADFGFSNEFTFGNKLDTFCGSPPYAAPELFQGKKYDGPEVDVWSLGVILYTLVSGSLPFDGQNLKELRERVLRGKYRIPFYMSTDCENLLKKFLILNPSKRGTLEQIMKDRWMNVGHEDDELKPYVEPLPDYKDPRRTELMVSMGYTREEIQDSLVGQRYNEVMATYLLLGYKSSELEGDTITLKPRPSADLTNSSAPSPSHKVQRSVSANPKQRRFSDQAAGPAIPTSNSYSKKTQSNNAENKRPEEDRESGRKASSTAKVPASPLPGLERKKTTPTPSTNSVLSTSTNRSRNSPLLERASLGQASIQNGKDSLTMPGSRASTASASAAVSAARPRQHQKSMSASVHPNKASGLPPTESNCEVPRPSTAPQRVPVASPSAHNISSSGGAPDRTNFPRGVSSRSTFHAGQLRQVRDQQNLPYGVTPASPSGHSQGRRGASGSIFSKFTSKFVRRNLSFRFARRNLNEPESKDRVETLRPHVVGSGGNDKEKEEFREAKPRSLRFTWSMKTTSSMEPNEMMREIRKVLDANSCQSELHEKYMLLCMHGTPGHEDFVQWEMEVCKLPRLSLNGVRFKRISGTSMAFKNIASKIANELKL

SMILES: CS(=O)(=O)Nc1ccccc1Nc1nc(Nc2cccc(OCCN)c2)ncc1Cl [CZC31326, N-(2-(2-(3-(2-aminoethoxy)phenylamino)-5-chloropyrimidin-4-ylamino)phenyl)methanesulfonamide]
- inhibition at 10 µM (MARK2): 97.1%
- inhibition at 10 µM (MAP3K2): 96.3%
